Source: patent US20250304582A1, “Bicyclic Ureas As Kinase Inhibitors” (Incyte Corporation, priority 2024, published 2025)

Key:
[1] = target: T1, catalytic domain (JH1, amino acids 826-1132) of human JAK2 (Homo sapiens, UniProt O60674); assay: JAK2 LanthaScreen JH1 Binding Assay; conditions: 50 nM fluorescent JAK2-JH1 tracer, 2 hours at 25° C.; read-out: JH1 BIND (EX. A)
T1 construct: catalytic domain (JH1, amino acids 826-1132) of human JAK2; FLAG (N); purchased Carna Biosciences 08-445-20N; host or cells: baculovirus expression system
T1 sequence (O60674 826-1132): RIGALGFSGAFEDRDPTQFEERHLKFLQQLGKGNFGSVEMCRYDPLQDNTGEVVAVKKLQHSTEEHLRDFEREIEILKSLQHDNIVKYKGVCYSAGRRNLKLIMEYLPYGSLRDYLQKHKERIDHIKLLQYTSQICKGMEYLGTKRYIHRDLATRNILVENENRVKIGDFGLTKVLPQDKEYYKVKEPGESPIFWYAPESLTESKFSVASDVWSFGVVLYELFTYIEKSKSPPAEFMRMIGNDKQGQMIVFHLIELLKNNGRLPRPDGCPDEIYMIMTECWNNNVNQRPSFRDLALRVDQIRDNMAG
How it was run: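 FLAG-tagged biotinylated JAK2 JH1 (1.5 nM) was incubated 2 h at 25° C with compound, 50 nM fluorescent tracer and 0.5 nM Streptavidin-Tb in Tris pH 7.5 buffer. Tracer displacement read by TR-FRET; nonspecific binding defined with 2 mM ATP. IC50 from four-parameter fit.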

[2] = target: T2, catalytic domain (JH1, amino acids 808-1132) of human JAK2 (Homo sapiens, UniProt O60674); assay: JAK2 HTRF Enzyme Activity Assay; format: biochemical; conditions: ATP (30 μM or 1 mM; not stated which for the table), 60 minutes at 25° C.; read-out: JAK2 HTRF (Ex. D)
T2 construct: catalytic domain (JH1, amino acids 808-1132) of human JAK2; His (N); purchased BPS Bioscience 40450; host or cells: baculovirus expression system
T2 sequence (O60674 808-1132): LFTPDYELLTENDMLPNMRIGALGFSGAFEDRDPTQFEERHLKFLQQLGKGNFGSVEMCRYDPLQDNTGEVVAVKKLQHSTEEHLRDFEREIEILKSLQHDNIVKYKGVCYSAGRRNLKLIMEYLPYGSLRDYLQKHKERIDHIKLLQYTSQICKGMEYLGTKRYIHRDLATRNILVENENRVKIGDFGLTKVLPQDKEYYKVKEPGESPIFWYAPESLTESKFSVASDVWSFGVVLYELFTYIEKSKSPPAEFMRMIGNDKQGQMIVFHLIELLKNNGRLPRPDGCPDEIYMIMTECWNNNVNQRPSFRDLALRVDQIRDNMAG
How it was run: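 N-terminal His-tagged, baculovirus-expressed JH1 domain (0.015 nM) reacts 60 min at 25 °C with 500 nM biotinylated peptide and 30 μM or 1 mM ATP in Tris pH 7.5/10 mM MgCl2. Phosphorylation is detected by HTRF with Eu-anti-phosphotyrosine (PY20) and streptavidin-APC after EDTA stop. IC50 comes from four-parameter fits.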

[3] = target: T3, pseudo-kinase domain (JH2, amino-acids 536-812) of human Wild Type JAK2 (Homo sapiens, UniProt O60674, F794H/W659A/W777A); assay: JAK2 LanthaScreen JH2-WT Binding Assay; conditions: 50 nM Fluorescent JAK2-JH2 Tracer, 1 hour at 25° C.; read-out: JH2 BIND WT (EX. B)
T3 construct: JH2, amino-acids 536-812 with 3 surface mutations W659A, W777A, F794H; His (C); purchased BPS Bioscience 79463; host or cells: baculovirus expression system
T3 sequence (O60674 536-812 W659A/W777A/F794H): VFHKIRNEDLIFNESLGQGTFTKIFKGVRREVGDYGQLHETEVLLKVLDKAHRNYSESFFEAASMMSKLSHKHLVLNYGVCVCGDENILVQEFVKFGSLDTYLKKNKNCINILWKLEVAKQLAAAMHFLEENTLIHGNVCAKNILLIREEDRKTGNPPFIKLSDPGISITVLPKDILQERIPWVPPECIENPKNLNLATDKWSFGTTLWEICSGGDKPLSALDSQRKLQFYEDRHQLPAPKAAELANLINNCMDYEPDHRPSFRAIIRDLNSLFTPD
How it was run: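 JH2 domain (0.145 nM; His-Avi-tagged, biotinylated, baculovirus-expressed) incubated 1 h at 25° C. with compounds, 50 nM fluorescent JH2 tracer and 0.25 nM streptavidin-Tb in pH 7.5 Tris buffer with MgCl2, EGTA, DTT. Non-specific binding defined with 2 mM ATP. TR-FRET tracer displacement read; IC50 from four-parameter fit.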

[4] = target: T4, pseudo-kinase domain (JH2, amino-acids 536-812) of human V617F mutant JAK2 (Homo sapiens, UniProt O60674, F794H/V617F/W659A/W777A); assay: JAK2 LanthaScreen JH2-V617F Binding Assay; conditions: 50 nM Fluorescent JAK2-JH2 Tracer, 1 hour at 25° C.; read-out: JH2 BIND V617F (Ex. C)
T4 construct: JH2, amino-acids 536-812 with 3 surface mutations W659A, W777A, F794H; His (C); purchased BPS Bioscience 79498; host or cells: baculovirus expression system
T4 sequence (O60674 536-812 V617F/W659A/W777A/F794H): as the sequence (O60674 536-812 W659A/W777A/F794H) above, with V82F counted along it
How it was run: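 Biotinylated His-Avi-tagged JH2 construct (536-812, W659A/W777A/F794H) at 0.26 nM, with 50 nM fluorescent JH2 tracer and 0.25 nM streptavidin-Tb, in pH 7.5 Tris/MgCl2 buffer; 1 h at 25° C. Non-specific binding defined with 2 mM ATP. IC50 derived from TR-FRET signal by four-parameter dose-response fit.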

SMILES	IC50 [1] [nM]	IC50 [2] [nM]	IC50 [3] [nM]	IC50 [4] [nM]
COC(=O)N[C@@H]1CC[C@@H](n2c(=O)n(C)c3cnc(Nc4ccc5cccc(Br)c5n4)cc32)C1 [Example 24, Methyl ((1R,3R)-3-(6-((8-bromoquinolin-2-yl)amino)-3-methyl-2-oxo-2,3-dihydro-1H-imidazo[4,5-c]pyridin-1-yl)cyclopentyl)carbamate]	> 1000	> 1000	≤ 10	≤ 10
COC(=O)N[C@H]1CC[C@H](n2c(=O)n(C)c3cnc(Nc4ccc5cccc(Cl)c5n4)cc32)C1 [Example 40, Methyl ((1S,3S)-3-(6-((8-chloroquinolin-2-yl)amino)-3-methyl-2-oxo-2,3-dihydro-1H-imidazo[4,5-c]pyridin-1-yl)cyclopentyl)carbamate]	> 1000	> 1000	≤ 10	10 to 100
COC(=O)N[C@@H]1CC[C@@H](n2c(=O)n(C)c3cnc(Nc4ccc5cccc(C)c5n4)cc32)C1 [Example 39, Methyl ((1R,3R)-3-(3-methyl-6-((8-methylquinolin-2-yl)amino)-2-oxo-2,3-dihydro-1H-imidazo[4,5-c]pyridin-1-yl)cyclopentyl)carbamate]	> 1000	> 1000	≤ 10	10 to 100
[2H]C([2H])([2H])n1c(=O)n([C@@H]2CC[C@@H](NC(=O)OC)C2)c2cc(Nc3ccc4ncc(C(C)C(F)(F)F)n4n3)ncc21 (stereo partly drawn) [Example 30, Methyl ((1R,3R)-3-(3-(methyl-d3)-2-oxo-6-((3-(1,1,1-trifluoropropan-2-yl)imidazo[1,2-b]pyridazin-6-yl)amino)-2,3-dihydro-1H-imidazo[4,5-c]pyridin-1-yl)cyclopentyl)carbamate]	> 1000	> 1000	≤ 10	≤ 10
COC(=O)N[C@@H]1CC[C@@H](n2c(=O)n(C)c3cnc(Nc4ccc5cc(C#N)ccc5n4)cc32)C1 [Example 45, Methyl ((1R,3R)-3-(6-((6-cyanoquinolin-2-yl)amino)-3-methyl-2-oxo-2,3-dihydro-1H-imidazo[4,5-c]pyridin-1-yl)cyclopentyl)carbamate]	> 1000	> 1000	10 to 100	100 to 500
[2H]C([2H])([2H])n1c(=O)n([C@@H]2CC[C@@H](NC(=O)OC)C2)c2cc(Nc3ccc4nccc(C#N)c4n3)ncc21 [Example 36, Methyl ((1R,3R)-3-(6-((8-cyano-1,5-naphthyridin-2-yl)amino)-3-(methyl-d3)-2-oxo-2,3-dihydro-1H-imidazo[4,5-c]pyridin-1-yl)cyclopentyl)carbamate]	> 1000	> 1000	≤ 10	≤ 10
[2H]C([2H])([2H])n1c(=O)n([C@@H]2CC[C@@H](NC(=O)OC)C2)c2cc(Nc3cc(S(C)(=O)=O)c4cccc(C(F)(F)F)c4n3)ncc21 [Example 6, Methyl ((1R,3R)-3-(3-(methyl-d3)-6-((4-(methylsulfonyl)-8-(trifluoromethyl)quinolin-2-yl)amino)-2-oxo-2,3-dihydro-1H-imidazo[4,5-c]pyridin-1-yl)cyclopentyl)carbamate]	> 1000	> 1000	≤ 10	≤ 10
[2H]C([2H])([2H])n1c(=O)n([C@@H]2CC[C@@H](NC(=O)OC)C2)c2cc(Nc3cc(C(C)(C)O)c4nccc(C)c4n3)ncc21 [Example 29, Methyl ((1R,3R)-3-(6-((4-(2-hydroxypropan-2-yl)-8-methyl-1,5-naphthyridin-2-yl)amino)-3-(methyl-d3)-2-oxo-2,3-dihydro-1H-imidazo[4,5-c]pyridin-1-yl)cyclopentyl)carbamate]	> 1000	> 1000	≤ 10	≤ 10
[2H]C([2H])([2H])n1c(=O)n([C@@H]2CC[C@@H](NC(=O)OC)C2)c2cc(Nc3ccc4ncc(C(F)(F)F)n4n3)ncc21 [Example 31, Methyl ((1R,3R)-3-(3-(methyl-d3)-2-oxo-6-((3-(trifluoromethyl)imidazo[1,2-b]pyridazin-6-yl)amino)-2,3-dihydro-1H-imidazo[4,5-c]pyridin-1-yl)cyclopentyl)carbamate]	> 1000	> 1000	≤ 10	≤ 10
[2H]C([2H])([2H])n1c(=O)n([C@@H]2CC[C@@H](NC(=O)OC)C2)c2cc(Nc3cc(CC#N)c4cccc(C(F)(F)F)c4n3)ncc21 [Example 18, Methyl ((1R,3R)-3-(6-((4-(cyanomethyl)-8-(trifluoromethyl)quinolin-2-yl)amino)-3-(methyl-d3)-2-oxo-2,3-dihydro-1H-imidazo[4,5-c]pyridin-1-yl)cyclopentyl)carbamate]	500 to 1000	500 to 1000	≤ 10	≤ 10
[2H]C([2H])([2H])n1c(=O)n([C@@H]2CC[C@@H](NC(=O)OC)C2)c2cc(Nc3cc(C(C)(C)C#N)c4cccc(C(F)(F)F)c4n3)ncc21 [Example 19, Methyl ((1R,3R)-3-(6-((4-(2-cyanopropan-2-yl)-8-(trifluoromethyl)quinolin-2-yl)amino)-3-(methyl-d3)-2-oxo-2,3-dihydro-1H-imidazo[4,5-c]pyridin-1-yl)cyclopentyl)carbamate]	> 1000	> 1000	≤ 10	≤ 10
[2H]C([2H])([2H])n1c(=O)n([C@@H]2CC[C@@H](NC(=O)OC)C2)c2cc(Nc3cc(C(=O)N(C)C(C)C)c4cccc(C(F)(F)F)c4n3)ncc21 [Example 10, Methyl ((1R,3R)-3-(6-((4-(isopropyl(methyl)carbamoyl)-8-(trifluoromethyl)quinolin-2-yl)amino)-3-(methyl-d3)-2-oxo-2,3-dihydro-1H-imidazo[4,5-c]pyridin-1-yl)cyclopentyl)carbamate]	> 1000	> 1000	≤ 10	≤ 10
[2H]C([2H])([2H])n1c(=O)n([C@@H]2CC[C@@H](NC(=O)OC)C2)c2cc(Nc3ccc4cccc([N+](=O)[O-])c4n3)ncc21 [Example 35, Methyl ((1R,3R)-3-(3-(methyl-d3)-6-((8-nitroquinolin-2-yl)amino)-2-oxo-2,3-dihydro-1H-imidazo[4,5-c]pyridin-1-yl)cyclopentyl)carbamate]	> 1000	> 1000	≤ 10	≤ 10
COC(=O)N[C@@H]1CC[C@@H](n2c(=O)n(C)c3cnc(Nc4ccc5ccc(C#N)cc5n4)cc32)C1 [Example 44, Methyl ((1R,3R)-3-(6-((7-cyanoquinolin-2-yl)amino)-3-methyl-2-oxo-2,3-dihydro-1H-imidazo[4,5-c]pyridin-1-yl)cyclopentyl)carbamate]	> 1000	> 1000	100 to 500	100 to 500
[2H]C([2H])([2H])n1c(=O)n([C@@H]2CC[C@@H](NC(=O)OC)C2)c2cc(Nc3cc(CO)c4cccc(C(F)(F)F)c4n3)ncc21 [Example 1, Methyl ((1R,3R)-3-(6-((4-(hydroxymethyl)-8-(trifluoromethyl)quinolin-2-yl)amino)-3-(methyl-d3)-2-oxo-2,3-dihydro-1H-imidazo[4,5-c]pyridin-1-yl)cyclopentyl)carbamate]	> 1000	> 1000	≤ 10	≤ 10
